In brackets after ≈: the same amount, converted by molar mass.
How the values were obtained:
Assay type in all cases: functional
[1] = test system: Staphylococcus aureus; assay: Antibacterial activity against Staphylococcus aureus SK&F 23390 assessed as […]
[2] = test system: Enterococcus faecalis; assay: Antibacterial activity against Streptococcus faecalis HH 34358 assessed as […]
[3] = test system: Escherichia coli; assay: Antibacterial activity against Escherichia coli SK&F 12140 assessed as […]
[4] = test system: Escherichia coli; assay: Antibacterial activity against Escherichia coli HH 33779 assessed as […]
[5] = test system: Klebsiella pneumoniae; assay: Antibacterial activity against Klebsiella pneumoniae SK&F 1200 assessed as […]
[6] = test system: Serratia marcescens; assay: Antibacterial activity against Serratia marcescens ATCC 13880 assessed as […]
[7] = test system: Morganella morganii; assay: Antibacterial activity against Proteus morganii 179 assessed as […]
[8] = test system: Klebsiella aerogenes; assay: Antibacterial activity against Enterobacter aerogenes ATCC 13048 assessed as […]

- MIC [1]: 0.2 µM (≈ 0.0793 µg/mL)
- MIC [2]: 14 µM (≈ 5.55 µg/mL)
- MIC [3]: 7 µM (≈ 2.78 µg/mL)
- MIC [4]: 7 µM (≈ 2.78 µg/mL)
- MIC [5]: 3.6 µM (≈ 1.43 µg/mL)
- MIC [6]: > 453 µM
- MIC [7]: > 453 µM
- MIC [8]: 14 µM (≈ 5.55 µg/mL)
Compound: CC(=O)OCC1=C(C(=O)O)N2C(=O)[C@@H](NC(=O)Cc3cccs3)[C@H]2SC1 [CEPHALOTHIN]
